Marks after values point to notes of the source that are not given here.
Legend:
Type in all cases: in vivo, human
myelofibrosis [1] = test: SIMPLIFY-1 Phase 3 trial: splenic response rate (SRR); settings: for SRR Responders / SRR proportion (Wilson 95% CI) / SRR Absolute risk difference (Newcombe 95% CI): SIMPLIFY 1, 24 weeks; for SRR Absolute risk difference (Newcombe 95% CI): MMB vs Control
Method: (§1) In the SIMPLIFY-1 trial (NCT01969838), the efficacy and safety of MMB versus ruxolitinib (RUX) was studied in patients with myelofibrosis who were naïve to treatment with a JAK inhibitor and a platelet count of ≥50×10^9/L. Patients (N=432) with high risk or intermediate-2 risk or symptomatic intermediate-1 risk myelofibrosis received 24 weeks of treatment with 200 mg MMB once daily or 20 mg RUX twice a day (or per label), after which all patients could receive open-label momelotinib. […] The primary endpoint was a reduction by at least 35% in the spleen volume at 24 weeks compared with baseline.
(§2) FIG. 8A: SIMPLIFY-1 study of MMB in a first line population previously untreated with JAKi. For SIMPLIFY-1, the goal was non-inferiority over ruxolitinib (RUX) (MMB: N=215 subjects, and RUX: N=217 subjects). FIG. 8B: SIMPLIFY-2 study of second line population of anemic or thrombocytopenic subjects previously treated with RUX (red blood cell (RBC) transfusions on RUX=64%. RUX dose adjustment for: thrombocytopenia=21%; anemia/hematoma=35%). For SIMPLIFY-2, the goal was superiority over best available treatment (BAT) (MMB: N=104 subjects, and BAT: N=52 subjects). In both SIMPLIFY-1 and SIMPLIFY: Primary endpoint: >=35% reduction in spleen volume at 24 weeks. Secondary endpoints: Total symptom score (TSS) response at 24 weeks. Effects on RBC transfusion requirements.
(§3) The SIMPLIFY 1 clinical trial data was reanalyzed for subgroups of subjects having particular baseline platelet counts in the MMB versus RUX arms of the study.
(§4) Patient data was analyzed according to the following baseline platelet count (PLT) subgroups and in particular according to the threshold PLT of 150×10^9/L: 1) PLT<50×10^9/L; 2) 50×10^9/L≤PLT<100×10^9/L; 3) 100×10^9/L≤PLT<150×10^9/L. The reanalyzed data is presented in Table 13 (SIMPLIFY 1). Selected data is also illustrated in the following figures.

myelofibrosis [2] = test: SIMPLIFY-2 Phase 3 trial: total symptom score (TSS) response; settings: for TSS Responders / TSS proportion (Wilson 95% CI) / TSS Absolute risk difference (Newcombe 95% CI): SIMPLIFY 2; for TSS Absolute risk difference (Newcombe 95% CI): MMB vs Control
From the text: In the SIMPLIFY-2 trial (NCT02101268), the efficacy and safety of MMB was studied in anemic or thrombocytopenic subjects with myelofibrosis who were previously treated with ruxolitinib (RUX). […] Specifically, anemic or thrombocytopenic myelofibrosis patients who had and were previously treated with (RUX) (for at least 28 days) were studied over 24 weeks for response to MMB versus best available treatment (BAT), primarily RUX (89% of patients) but alternatively no treatment or other standard interventions, after which period all patients could receive extended MMB treatment. Previously treated RUX patients who either required red blood cell transfusions or RUX dose reduction with grade 3 thrombocytopenia, anemia, and/or bleeding at grade 3 or worse, with palpable spleen of at least 5 cm and without grade 2 or greater peripheral neuropathy were included in the trial. There was no lower limit for the required baseline platelet count. The primary endpoint was a reduction by at least 35% in the spleen volume at 24 weeks compared with baseline.
as §2
The SIMPLIFY 2 clinical trial data was reanalyzed for subgroups of subjects having particular baseline platelet counts in the MMB versus BAT arms of the study.
Patient data was analyzed according to the following baseline platelet count (PLT) subgroups and in particular according to a threshold PLT of 150×10^9/L: 1) PLT<50×10^9/L; 2) 50×10^9/L≤PLT<100×10^9/L; 3) 100×10^9/L≤PLT<150×10^9/L. The reanalyzed data is presented in Table 14 (SIMPLIFY 2).

myelofibrosis [3] = test: SIMPLIFY-1 Phase 3 trial: total symptom score (TSS) response at week 24; settings: for TSS Responders / TSS proportion (Wilson 95% CI) / TSS Absolute risk difference (Newcombe 95% CI): SIMPLIFY 1, 24 weeks; for TSS Absolute risk difference (Newcombe 95% CI): MMB vs Control; for TSS response rate: SIMPLIFY 1, week 24
Method: as §1, §2, §3, §4

In the case of `Cl.N#CCNC(=O)c1ccc(-c2ccnc(Nc3ccc(N4CCOCC4)cc3)n2)cc1` [MMB, N-(cyanomethyl)-4-(2-(4-morpholinophenylamino)pyrimidin-4-yl)benzamide], the “SRR Responders” value (myelofibrosis [1]; 50 ≤ PLT < 100 ×10^9/L) is reported as 7, the “SRR proportion (Wilson 95% CI)” value (myelofibrosis [1]; 50 ≤ PLT < 100 ×10^9/L) is reported as 0.39 and the “SRR Absolute risk difference (Newcombe 95% CI)” value (myelofibrosis [1]; 50 ≤ PLT < 100 ×10^9/L) is reported as 0.39. For the same compound, the “SRR Responders” value (myelofibrosis [1]; 100 ≤ PLT < 150 ×10^9/L) was 4, the “SRR proportion (Wilson 95% CI)” value (myelofibrosis [1]; 100 ≤ PLT < 150 ×10^9/L) was 0.14 and the “SRR Absolute risk difference (Newcombe 95% CI)” value (myelofibrosis [1]; 100 ≤ PLT < 150 ×10^9/L) was 0.08. The “SRR Responders” value (myelofibrosis [1]; ITT) was 57, the “SRR proportion (Wilson 95% CI)” value (myelofibrosis [1]; ITT) was 0.27 and the “SRR Absolute risk difference (Newcombe 95% CI)” value (myelofibrosis [1]; ITT) was −0.03. For the same compound, the “subjects who did not achieve a spleen response on ruxolitinib but did so after 24 weeks of additional momelotinib treatment” value (myelofibrosis [1]; SIMPLIFY 1, crossover arm) was 16.5%, the “spleen response (SRR) at any time in the open label phase” value (myelofibrosis [1]; SIMPLIFY 1, momelotinib arm) was 46.2% and the SRR (myelofibrosis [1]; SIMPLIFY 1, overall) was 26.5%. The SRR (myelofibrosis [1]; SIMPLIFY 1, week 24, ITT, all patients) was 27%, the SRR (myelofibrosis [1]; SIMPLIFY 1, week 24, ITT, platelets 50-100 (subgroup 2)) was 39% and the SRR (myelofibrosis [1]; SIMPLIFY 1, week 24, ITT, platelets 100-150 (subgroup 3)) was 14% ‡. It also gave an SRR (myelofibrosis [1]; SIMPLIFY 1, week 24, baseline TSS ≥ 6, all patients) of 25%, an SRR (myelofibrosis [1]; SIMPLIFY 1, week 24, baseline TSS ≥ 6, platelets 50-100 (subgroup 2)) of 43% and an SRR (myelofibrosis [1]; SIMPLIFY 1, week 24, baseline TSS ≥ 6, platelets 100-150 (subgroup 3)) of 14% ‡. For the same compound, the SRR (myelofibrosis [1]; SIMPLIFY 1, week 24, baseline TSS ≥ 10, all patients) was 24%, the SRR (myelofibrosis [1]; SIMPLIFY 1, week 24, baseline TSS ≥ 10, platelets 50-100 (subgroup 2)) was 42% and the SRR (myelofibrosis [1]; SIMPLIFY 1, week 24, baseline TSS ≥ 10, platelets 100-150 (subgroup 3)) was 13% ‡. For the same compound, the “spleen response compared with RUX” value (myelofibrosis [1]; SIMPLIFY 1, p=0.011) was “statistically non-inferior to RUX”, the TSS symptom response (myelofibrosis [2]; SIMPLIFY 2, second line patients) was 26.2% and the “TSS Responders” value (myelofibrosis [2]; 50 ≤ PLT < 100 ×10^9/L) was 9. For the same compound, the “TSS proportion (Wilson 95% CI)” value (myelofibrosis [2]; 50 ≤ PLT < 100 ×10^9/L) was 0.27, the “TSS Absolute risk difference (Newcombe 95% CI)” value (myelofibrosis [2]; 50 ≤ PLT < 100 ×10^9/L) was 0.27 and the “TSS Responders” value (myelofibrosis [2]; 100 ≤ PLT < 150 ×10^9/L) was 6. The “TSS proportion (Wilson 95% CI)” value (myelofibrosis [2]; 100 ≤ PLT < 150 ×10^9/L) was 0.25, the “TSS Absolute risk difference (Newcombe 95% CI)” value (myelofibrosis [2]; 100 ≤ PLT < 150 ×10^9/L) was 0.25 and the “TSS Responders” value (myelofibrosis [2]; ITT) was 27. For the same compound, the “TSS proportion (Wilson 95% CI)” value (myelofibrosis [2]; ITT) was 0.26, the “TSS Absolute risk difference (Newcombe 95% CI)” value (myelofibrosis [2]; ITT) was 0.20 and the “TSS Responders” value (myelofibrosis [2]; PLT < 50 ×10^9/L) was 1. For the same compound, the “TSS proportion (Wilson 95% CI)” value (myelofibrosis [2]; PLT < 50 ×10^9/L) was 0.11, the “TSS Absolute risk difference (Newcombe 95% CI)” value (myelofibrosis [2]; PLT < 50 ×10^9/L) was −0.03 and the “TSS Responders” value (myelofibrosis [3]; 50 ≤ PLT < 100 ×10^9/L) was 6. For the same compound, the “TSS proportion (Wilson 95% CI)” value (myelofibrosis [3]; 50 ≤ PLT < 100 ×10^9/L) was 0.33, the “TSS Absolute risk difference (Newcombe 95% CI)” value (myelofibrosis [3]; 50 ≤ PLT < 100 ×10^9/L) was 0.12 and the “TSS Responders” value (myelofibrosis [3]; 100 ≤ PLT < 150 ×10^9/L) was 7. The “TSS proportion (Wilson 95% CI)” value (myelofibrosis [3]; 100 ≤ PLT < 150 ×10^9/L) was 0.24, the “TSS Absolute risk difference (Newcombe 95% CI)” value (myelofibrosis [3]; 100 ≤ PLT < 150 ×10^9/L) was −0.15 and the “TSS Responders” value (myelofibrosis [3]; ITT) was 60. The “TSS proportion (Wilson 95% CI)” value (myelofibrosis [3]; ITT) was 0.28, the “TSS Absolute risk difference (Newcombe 95% CI)” value (myelofibrosis [3]; ITT) was −0.13 and the TSS response rate (myelofibrosis [3]; ITT, all patients) was 28%. For the same compound, the TSS response rate (myelofibrosis [3]; ITT, platelets 50-100 (subgroup 2)) was 33%, the TSS response rate (myelofibrosis [3]; ITT, platelets 100-150 (subgroup 3)) was 24% and the TSS response rate (myelofibrosis [3]; baseline TSS ≥ 6, all patients) was 33%. It also gave a TSS response rate (myelofibrosis [3]; baseline TSS ≥ 6, platelets 50-100 (subgroup 2)) of 36%, a TSS response rate (myelofibrosis [3]; baseline TSS ≥ 6, platelets 100-150 (subgroup 3)) of 32% and a TSS response rate (myelofibrosis [3]; baseline TSS ≥ 10, all patients) of 33%. The TSS response rate (myelofibrosis [3]; baseline TSS ≥ 10, platelets 50-100 (subgroup 2)) was 36%, the TSS response rate (myelofibrosis [3]; baseline TSS ≥ 10, platelets 100-150 (subgroup 3)) was 32% and the “Total Symptom Score (TSS) response” value (myelofibrosis [3]; SIMPLIFY-1, overall) was 28.4%. The “TSS Noninferior Proportion Difference” value (myelofibrosis [3]; SIMPLIFY-1, MMB vs RUX) was 0.00 (−0.08, 0.08).

— patent publication US11963962B2, “Platelet count-agnostic methods of treating myelofibrosis” (Sierra Oncology, Inc., priority 2018, dated 2024)
